Data reported in patent US10899759B2, “Positive allosteric modulators of the muscarinic acetylcholine receptor M1” (Vanderbilt University, priority 2016, dated 2021).

Target: T1, human mAChR M1 (Homo sapiens, UniProt P11229)
T1 construct: host or cells: CHO-K1
T1 sequence (P11229 1-460): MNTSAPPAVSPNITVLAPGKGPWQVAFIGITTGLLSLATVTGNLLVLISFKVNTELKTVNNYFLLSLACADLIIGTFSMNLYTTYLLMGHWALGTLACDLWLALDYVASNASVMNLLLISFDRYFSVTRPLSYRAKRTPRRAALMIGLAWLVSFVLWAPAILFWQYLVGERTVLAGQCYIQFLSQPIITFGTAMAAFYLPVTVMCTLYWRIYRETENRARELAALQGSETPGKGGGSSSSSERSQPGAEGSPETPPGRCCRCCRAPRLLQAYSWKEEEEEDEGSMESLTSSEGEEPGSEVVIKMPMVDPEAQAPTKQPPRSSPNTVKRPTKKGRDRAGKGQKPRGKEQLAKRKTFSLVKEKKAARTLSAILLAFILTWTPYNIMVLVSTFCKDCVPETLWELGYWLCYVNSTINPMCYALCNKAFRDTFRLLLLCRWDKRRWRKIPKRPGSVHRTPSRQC
Assay: mAChR M1 cell-based functional assay (calcium mobilization, Fluo-4, FDSS)
Conditions: CHO-K1 cells stably expressing hM1; for Emax: EC20 acetylcholine response, read-out: Human M1 Emax; for EC50: positive allosteric modulator activity as increase in the EC20 acetylcholine response
How it was run: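 CHO-K1 cells stably expressing muscarinic receptor, loaded with Fluo-4; 11-point 1:3 compound series added and calcium flux read over 300 s at 1 Hz. Agonism from direct calcium rise, PAM activity as potentiation of EC20 acetylcholine, antagonism as decrease of EC80 acetylcholine; four-parameter logistic fits.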

An Emax of 56.2% and an EC50 of 520 nM were found for CC1CC(NC(=O)c2cc(Cc3ccc(-c4ccn(C)n4)cc3)c3ccsc3n2)CC(C)O1 (centres unmarked) [Compound 91, N-(2,6-dimethyltetrahydropyran-4-yl)-4-[[4-(1-methylpyrazol-3-yl)phenyl]methyl]thieno[2,3-b]pyridine-6-carboxamide] in this work.

An Emax of 61.4% and an EC50 of 630 nM were found for Cn1ccc(-c2ccc(Cc3cc(C(=O)NCC4CCOCC4)nc4sccc34)cc2)n1 [Compound 94, 4-[[4-(1-methylpyrazol-3-yl)phenyl]methyl]-N-(tetrahydropyran-4-ylmethyl)thieno[2,3-b]pyridine-6-carboxamide] in this work.

An Emax of 84% and an EC50 of 270 nM were found for Cc1nc(-c2ccc(Cc3cc(C(=O)N[C@H]4CCC[C@@H]4O)nc4c3ccn4C)cc2)co1 [Compound 56, N-[(1S,2S)-2-hydroxycyclopentyl]-1-methy1-4-[[4-(2-methyloxazol-4-yl)phenyl]methyl]pyrrolo[2,3-b]pyridine-6-carboxamide] in this work.

An Emax of 72.7% and an EC50 of 1270 nM were found for CC(NC(=O)c1cc(Cc2ccc(-c3ccn(C)n3)nc2)c2ccn(C)c2n1)C1CCCO1 (centres unmarked) [Compound 157, 1-methyl-4-[[6-(1-methylpyrazol-3-yl)-3-pyridyl]methyl]-N-(1-tetrahydrofuran-2-ylethyl)pyrrolo[2,3-b]pyridine-6-carboxamide] in this work.

An Emax of 47.8% and an EC50 of 10 nM were found for O=C(N[C@H]1CCOC[C@@H]1O)c1cc(Cc2ccc(-n3cccn3)cc2)c2ccsc2n1 [Compound 70] in this work.

An Emax of 65.6% and an EC50 of 2080 nM were found for O=C(NCC1CCOC1)c1cc(Cc2ccc(-n3cccn3)cc2)c2ccsc2n1 (centres unmarked) [Compound 79, 4-[(4-pyrazol-1-ylphenyl)methyl]-N-(tetrahydrofuran-3-ylmethyl)thieno[2,3-b]pyridine-6-carboxamide] in this work.

An Emax of 41.2% and an EC50 of 40 nM were found for Cn1ccc(-c2ccc(Cc3cc(C(=O)N[C@H]4CCOC[C@@H]4O)nc4sccc34)cc2)n1 [Compound 89, N-[(3R,4S)-3-hydroxytetrahydropyran-4-yl]-4-[[4-(1-methylpyrazol-3-yl)phenyl]methyl]thieno[2,3-b]pyridine-6-carboxamide] in this work.

An Emax of 42.7% and an EC50 of 1080 nM were found for O=C(NCC1CCN1)c1cc(Cc2ccc(-n3cccn3)cc2)c2ccsc2n1 (centres unmarked) [Compound 84, N-(azetidin-2-ylmethyl)-4-[(4-pyrazol-1-ylphenyl)methyl]thieno[2,3-b]pyridine-6-carboxamide] in this work.

An Emax of 87.9% and an EC50 of 180 nM were found for Cn1cc(-c2ccc(Cc3cc(C(=O)NC4CCOC(C)(C)C4)nc4c3ccn4C)cn2)cn1 (centres unmarked) [Compound 49, N-(2,2-dimethyltetrahydropyran-4-yl)-1-methy1-4-[[6-(1-methylpyrazol-4-yl)-3-pyridyl]methyl]pyrrolo[2,3-b]pyridine-6-carboxamide] in this work.

An Emax of 62% and an EC50 of 690 nM were found for COCC(C)NC(=O)c1cc(Cc2ccc(-n3cccn3)cc2)c2ccsc2n1 (centres unmarked) [Compound 86, N-(2-methoxy-1-methyl-ethyl)-4-[(4-pyrazol-1-ylphenyl)methyl]thieno[2,3-b]pyridine-6-carboxamide] in this work.

An Emax of 74% and an EC50 of 750 nM were found for Cn1ccc(-c2ccc(Cc3cc(C(=O)NC4CC5(COC5)C4)nc4c3ccn4C)cc2)n1 [Compound 40, 1-methyl-4-[[4-(1-methylpyrazol-3-yl)phenyl]methyl]-N-(2-oxaspiro[3.3]heptan-6-yl)pyrrolo[2,3-b]pyridine-6-carboxamide] in this work.

An Emax of 58.9% and an EC50 of 1050 nM were found for Cc1nc(-c2ccc(Cc3cc(C(=O)NC4CC(C)OC(C)C4)nc4sccc34)cc2)co1 (centres unmarked) [Compound 132, N-(2,6-dimethyltetrahydropyran-4-yl)-4-[[4-(2-methyloxazol-4-yl)phenyl]methyl]thieno[2,3-b]pyridine-6-carboxamide] in this work.

An Emax of 79.7% and an EC50 of 3830 nM were found for Cn1ncc2c(Cc3ccc(-c4cscn4)cc3)cc(C(=O)N[C@H]3CC[C@@H]3O)nc21 [Compound 31, N-[(1S,2S)-2-hydroxycyclobutyl]-1-methyl-4-[(4-thiazol-4-ylphenyl)methyl]pyrazolo[3,4-b]pyridine-6-carboxamide] in this work.

An Emax of 78.6% and an EC50 of 130 nM were found for Cn1ccc(-c2ccc(Cc3cc(C(=O)N[C@H]4CCCC[C@@H]4O)nc4c3ccn4C)cc2)n1 [Compound 38, N-[(1S,2S)-2-hydroxycyclohexyl]-1-methyl-4-[[4-(1-methylpyrazol-3-yl)phenyl]methyl]pyrrolo[2,3-b]pyridine-6-carboxamide] in this work.

An Emax of 55.4% and an EC50 of 110 nM were found for Cn1ccc2c(Cc3ccc(-c4nccs4)cc3)cc(C(=O)N[C@H]3CCCC[C@@H]3O)nc21 [Compound 60, N-[(1S,2S)-2-hydroxycyclohexyl]-1-methyl-4-[(4-thiazol-2-ylphenyl)methyl]pyrrolo[2,3-b]pyridine-6-carboxamide] in this work.

An Emax of 63.3% and an EC50 of 40 nM were found for Cn1ccc2c(Cc3ccc(-c4cscn4)cc3)cc(C(=O)N[C@H]3CCCC[C@@H]3O)nc21 [Compound 22, N-[(1S,2S)-2-hydroxycyclohexyl]-1-methyl-4-[(4-thiazol-4-ylphenyl)methyl]pyrrolo[2,3-b]pyridine-6-carboxamide] in this work.

An Emax of 62.3% and an EC50 of 2320 nM were found for Cc1nc(-c2ccc(Cc3cc(C(=O)NC4CCOCC4(C)C)nc4sccc34)cc2)co1 (centres unmarked) [Compound 133, N-(3,3-dimethyltetrahydropyran-4-yl)-4-[[4-(2-methyloxazol-4-yl)phenyl]methyl]thieno[2,3-b]pyridine-6-carboxamide] in this work.

An Emax of 60.4% and an EC50 of 1500 nM were found for Cn1ccc2c(Cc3ccc(-c4nccs4)cc3)cc(C(=O)N[C@H]3CC[C@@H]3O)nc21 [Compound 63, N-[(1S,2S)-2-hydroxycyclobutyl]-1-methyl-4-[(4-thiazol-2-ylphenyl)methyl]pyrrolo[2,3-b]pyridine-6-carboxamide] in this work.

An Emax of 60.6% and an EC50 of 870 nM were found for Cn1ccc2c(Cc3ccc(-c4nccs4)cc3)cc(C(=O)NC3CC4(COC4)C3)nc21 [Compound 62, 1-methyl-N-(2-oxaspiro[3.3]heptan-6-yl)-4-[(4-thiazol-2-ylphenyl)methyl]pyrrolo[2,3-b]pyridine-6-carboxamide] in this work.

An Emax of 60.5% and an EC50 of 390 nM were found for Cc1nc(-c2ccc(Cc3cc(C(=O)NC4CC5(COC5)C4)nc4sccc34)cc2)co1 [Compound 139, 4-[[4-(2-methyloxazol-4-yl)phenyl]methyl]-N-(2-oxaspiro[3.3]heptan-6-yl)thieno[2,3-b]pyridine-6-carboxamide] in this work.

An Emax of 83.6% and an EC50 of 840 nM were found for Cc1nc(-c2ccc(Cc3cc(C(=O)N[C@H]4CC[C@@H]4O)nc4c3ccn4C)cc2)co1 [Compound 57, N-[(1S,2S)-2-hydroxycyclobutyl]-1-methy1-4-[[4-(2-methyloxazol-4-yl)phenyl]methyl]pyrrolo[2,3-b]pyridine-6-carboxamide] in this work.

An Emax of 53.5% and an EC50 of 40 nM were found for Cn1cc(-c2ccc(Cc3cc(C(=O)NC4COC4)nc4sccc34)cn2)cn1 [Compound 124, 4-[[6-(1-methylpyrazol-4-yl)-3-pyridyl]methyl]-N-(oxetan-3-yl)thieno[2,3-b]pyridine-6-carboxamide] in this work.

An Emax of 78% and an EC50 of 1050 nM were found for Cn1ccc(-c2ccc(Cc3cc(C(=O)N[C@@H]4CC[C@H]4O)nc4c3ccn4C)cc2)n1 [Compound 41, N-[(1R,2R)-2-hydroxycyclobutyl]-1-methy1-4-[[4-(1-methylpyrazol-3-yl)phenyl]methyl]pyrrolo[2,3-b]pyridine-6-carboxamide] in this work.

An Emax of 73.9% and an EC50 of 30 nM were found for Cn1cc(-c2ccc(Cc3cc(C(=O)N[C@H]4CCCC[C@@H]4O)nc4c3ccn4C)cn2)cn1 [Compound 46, N-[(1S,2S)-2-hydroxycyclohexyl]-1-methyl-4-[[6-(1-methylpyrazol-4-yl)-3-pyridyl]methyl]pyrrolo[2,3-b]pyridine-6-carboxamide] in this work.

An Emax of 66.4% and an EC50 of 30 nM were found for Cn1ccc2c(Cc3ccc(-n4cccn4)cc3)cc(C(=O)N[C@H]3CCCC[C@@H]3O)nc21 [Compound 17, N-[(1S,2S)-2-hydroxycyclohexyl]-1-methyl-4-[(4-pyrazol-1-ylphenyl)methyl]pyrrolo[2,3-b]pyridine-6-carboxamide] in this work.
